Several values for one entry are separate records, joined by “and”; a condition that tells them apart may be missing. Equal entries are not always repeated.
Each compound was assayed on CQ-resistant (Dd2) strain of P. falciparum (assay: In vitro antiplasmodial activity, SYBR Green I fluorescence assay, Dd2 strain). Conditions: CQ-resistant (Dd2) strain, 72 h incubation; read-out: EC50 (nmol).
Assay type: cell-based, Plasmodium falciparum
Method: A set of 104 new styrylquinoline derivatives were synthesized and investigated for in vitro their antimalarial activity. To test antimalarial activities, different dilutions of compounds were added to P. falciparum culture. Following 72 h incubation at 37° C. in an atmosphere containing 5% CO2, the inhibitory property of the compounds were determined by SYBR Green I fluorescence assay. Meanwhile, SARs studies were conducted.
The SAR studies were focused on improving the in vitro activity of 2-arylvinylquinolines against the CQ-resistant Pf Dd2 strain.

Structure (SMILES) | EC50 [µM]
COc1ccc2nc(C)cc(NCCN(C)C)c2c1 [Compound 6a] | 5.52 ± 0.571
Cc1cc(NCCN(C)C)c2cc(Cl)ccc2n1 [Compound 6c] | 0.732 ± 0.107
Cc1cc(NCCCN(C)C)c2cc(Cl)ccc2n1 [Compound 6e] | 1.25 ± 0.139
COc1ccc(/C=C/c2cc(NCCN(C)C)c3cc(OC)ccc3n2)cc1 [Compound 12] | 0.0436 ± 0.002
COc1ccc2nc(/C=C/c3ccc(OC)c(OC)c3)cc(NCCN(C)C)c2c1 [Compound 13] | 0.187 ± 0.0136
COc1ccc2nc(/C=C/c3cc(OC)c(OC)c(OC)c3)cc(NCCN(C)C)c2c1 [Compound 14] | 0.0742 ± 0.0088
COc1ccc2nc(/C=C/c3ccc(F)cc3)cc(NCCN(C)C)c2c1 [Compound 15] | 0.0329 ± 0.0051
CN(C)CCNc1cc(/C=C/c2ccc([N+](=O)[O-])cc2)nc2ccc(F)cc12 [Compound 17] | 0.0309 ± 0.0059
CN(C)CCNc1cc(/C=C/c2ccc(F)cc2)nc2ccc(F)cc12 [Compound 18] | 0.0309 ± 0.0055
COc1ccc(/C=C/c2cc(NCCN(C)C)c3cc(F)ccc3n2)cc1 [Compound 19] | 0.0378 ± 0.0087
COc1ccc(/C=C/c2cc(NCCN(C)C)c3cc(F)ccc3n2)cc1OC [Compound 20] | 0.0411 ± 0.0006
CN(C)CCNc1cc(/C=C/c2ccccc2)nc2ccc(Cl)cc12 [Compound 22] | 0.0224 ± 0.002
CN(C)CCNc1cc(/C=C/c2ccc([N+](=O)[O-])cc2)nc2ccc(Cl)cc12 [Compound 23] | 0.0287 ± 0.0038
COc1ccc(/C=C/c2cc(NCCN(C)C)c3cc(Cl)ccc3n2)cc1 [Compound 25] | 0.0348 ± 0.0079
COc1ccc(/C=C/c2cc(NCCN(C)C)c3cc(Cl)ccc3n2)cc1OC [Compound 26] | 0.0389 ± 0.0078
COc1cc(/C=C/c2cc(NCCN(C)C)c3cc(Cl)ccc3n2)cc(OC)c1OC [Compound 27] | 0.0444 ± 0.0036
CN(C)CCNc1cc(/C=C/c2ccc(N(C)C)cc2)nc2ccc(Cl)cc12 [Compound 28] | 0.0883 ± 0.0022
CN(C)CCNc1cc(/C=C/c2ccc([N+](=O)[O-])cc2)nc2ccccc12 [Compound 33] | 0.0479 ± 0.0095
CN(C)CCNc1cc(/C=C/c2ccc(F)cc2)nc2ccccc12 [Compound 34] | 0.0255 ± 0.0071
CN(C)CCCCNc1cc(/C=C/c2ccccc2)nc2ccc(Cl)cc12 [Compound 35] | 0.068 ± 0.009
CN(C)CCCCNc1cc(/C=C/c2ccc([N+](=O)[O-])cc2)nc2ccc(Cl)cc12 [Compound 36] | 0.0525 ± 0.002
CN(C)CCCCNc1cc(/C=C/c2ccc(F)cc2)nc2ccc(Cl)cc12 [Compound 37] | 0.0512 ± 0.0016

Structure (SMILES) | EC50 [µM]
COc1ccc2nc(/C=C/c3cccs3)cc(NCCN(C)C)c2c1 [Compound 40] | 0.08 ± 0.007
COc1ccc2nc(/C=C/c3cccnc3)cc(NCCN(C)C)c2c1 [Compound 43] | 0.071 ± 0.0275
CN(C)CCNc1cc(/C=C/c2cccs2)nc2ccc(F)cc12 [Compound 45] | 0.111 ± 0.0291
CN(C)CCNc1cc(/C=C/c2ccncc2)nc2ccc(F)cc12 [Compound 46] | 0.0361 ± 0.0021
CN(C)CCNc1cc(/C=C/c2cccs2)nc2ccc(Cl)cc12 [Compound 48] | 0.0297 ± 0.0046
CN(C)CCNc1cc(/C=C/c2nccs2)nc2ccc(Cl)cc12 [Compound 49] | 0.24 ± 0.0306
CN(C)CCNc1cc(/C=C/c2ccccn2)nc2ccc(Cl)cc12 [Compound 51] | 0.0675 ± 0.0019
CN(C)CCNc1cc(/C=C/c2cccnc2)nc2ccc(Cl)cc12 [Compound 52] | 0.0336 ± 0.0058
CN(C)CCNc1cc(/C=C/c2cccc3ccccc23)nc2ccc(Cl)cc12 [Compound 56] | 0.373 ± 0.019
CN(C)CCNc1cc(/C=C/C2CCCCC2)nc2ccc(Cl)cc12 [Compound 57] | 0.394 ± 0.04
Fc1ccc(/C=C/c2cc(N3CCOCC3)c3cc(Cl)ccc3n2)cc1 [Compound 62] | 6.75 ± 1.08
Clc1ccc2nc(/C=C/c3ccncc3)cc(N3CCOCC3)c2c1 [Compound 63] | 3.59 ± 0.87
N#Cc1ccc(/C=C/c2cc(N3CCOCC3)c3cc(Cl)ccc3n2)cc1 [Compound 64] | 1.01 ± 0.0842
Fc1ccc(/C=C/c2cc(N3CCCC3)c3cc(Cl)ccc3n2)cc1 [Compound 65] | 0.428 ± 0.015
Clc1ccc2nc(/C=C/c3ccncc3)cc(N3CCCC3)c2c1 [Compound 66] | 1.19 ± 0.175
Fc1ccc(/C=C/c2cc(N3CCN(c4ccccn4)CC3)c3cc(Cl)ccc3n2)cc1 [Compound 67] | 3.3 ± 0.06
Clc1ccc2nc(/C=C/c3ccncc3)cc(N3CCN(c4ccccn4)CC3)c2c1 [Compound 68] | 2.57 ± 0.61
Fc1ccc(/C=C/c2cc(Nc3ccc(N4CCCCC4)cc3)c3cc(Cl)ccc3n2)cc1 [Compound 69] | 0.667 ± 0.117
Clc1ccc2nc(/C=C/c3ccncc3)cc(Nc3ccc(N4CCCCC4)cc3)c2c1 [Compound 70] | 0.793 ± 0.0813
Fc1ccc(/C=C/c2cc(N3CCC(N4CCCCC4)CC3)c3cc(Cl)ccc3n2)cc1 [Compound 71] | 0.487 ± 0.0695
Clc1ccc2nc(/C=C/c3ccncc3)cc(NCCN3CCOCC3)c2c1 [Compound 82] | 0.137 ± 0.0146
Fc1ccc(/C=C/c2cc(NCCN3CCCC3)c3cc(Cl)ccc3n2)cc1 [Compound 83] | 0.0923 ± 0.0058

Structure (SMILES) | EC50 [µM]
Clc1ccc2nc(/C=C/c3ccccc3)cc(NCCN3CCCC3)c2c1 [Compound 84] | 0.107 ± 0.0084
Clc1ccc2nc(/C=C/c3ccncc3)cc(NCCN3CCCC3)c2c1 [Compound 85] | 0.0677 ± 0.0116
CN1CCN(CCNc2cc(/C=C/c3ccncc3)nc3ccc(Cl)cc23)CC1 [Compound 87] | 0.0533 ± 0.0085
Fc1ccc(/C=C/c2cc(NCCCN3CCOCC3)c3cc(Cl)ccc3n2)cc1 [Compound 90] | 0.0408 ± 0.0056
FC(F)(F)c1ccc(/C=C/c2cc(NCCCN3CCOCC3)c3cc(Cl)ccc3n2)cc1 [Compound 91] | 0.0848 ± 0.0063
CN1CCN(CCCCNc2cc(/C=C/c3ccccc3)nc3ccc(Cl)cc23)CC1 [Compound 94] | 0.0589 ± 0.0088
CN1CCN(CCCCNc2cc(/C=C/c3ccc(F)cc3)nc3ccc(Cl)cc23)CC1 [Compound 95] | 0.043 ± 0.0075
FC(F)(F)c1cccc(/C=C/c2cc(NCCCCN3CCOCC3)c3cc(Cl)ccc3n2)c1 [Compound 100] | 0.0339 ± 0.0014
FC(F)(F)Oc1ccc(/C=C/c2cc(NCCCCN3CCOCC3)c3cc(Cl)ccc3n2)cc1 [Compound 101] | 0.0566 ± 0.0076
FC(F)(F)c1cc(/C=C/c2cc(NCCCCN3CCOCC3)c3cc(Cl)ccc3n2)cc(C(F)(F)F)c1 [Compound 102] | 0.108 ± 0.008
Fc1cc(F)cc(/C=C/c2cc(NCCCCN3CCOCC3)c3cc(Cl)ccc3n2)c1 [Compound 103] | 0.185 ± 0.0341
Fc1ccc(/C=C/c2cc(NCCCCN3CCOCC3)c3cc(Cl)ccc3n2)c(F)c1 [Compound 104] | 0.0726 ± 0.0172
Fc1cc(F)c(F)c(/C=C/c2cc(NCCCCN3CCOCC3)c3cc(Cl)ccc3n2)c1 [Compound 106] | 0.588 ± 0.256
Fc1cc(F)c(/C=C/c2cc(NCCCCN3CCOCC3)c3cc(Cl)ccc3n2)cc1F [Compound 107] | 0.197 ± 0.0397
Fc1cc(/C=C/c2cc(NCCCCN3CCOCC3)c3cc(Cl)ccc3n2)cc(F)c1F [Compound 108] | 0.13 ± 0.0349
Fc1ccc(/C=C/c2cc(NCCCCN3CCOCC3)c3cc(Cl)ccc3n2)cn1 [Compound 110] | 0.0546 ± 0.0165
Fc1ccc(/C=C/c2cc(NCCCCN3CCOCC3)c3cc(Cl)ccc3n2)nc1 [Compound 111] | 0.0731 ± 0.0119
Fc1ccc(/C=C/C=C/c2cc(NCCCCN3CCOCC3)c3cc(Cl)ccc3n2)cc1 [Compound 113] | 0.0965 ± 0.0244
Clc1ccc2nc(/C=C/C=C/c3ccccc3)cc(NCCCCN3CCOCC3)c2c1 [Compound 114] | 0.143 ± 0.0186
Clc1ccc2nc(-c3ccccc3)cc(NCCCCN3CCOCC3)c2c1 [Compound 119] | 0.423 ± 0.0627

Same assay, conditions: Dd2 strain

Structure (SMILES) | EC50 | IC50 [µM]
COc1ccc2nc(C)cc(NCCN(C)C)c2c1 [Compound 6a] | inactive | –
Cc1cc(NCCN(C)C)c2cc(Cl)ccc2n1 [Compound 6c] | inactive | –
Cc1cc(NCCCN(C)C)c2cc(Cl)ccc2n1 [Compound 6e] | inactive | –
Fc1ccc(/C=C/c2cc(NCCCCN3CCOCC3)c3cc(Cl)ccc3n2)cn1 [Compound 110] | – | 0.0546 ± 0.0165

Same assay, conditions: Dd2 strain; read-out: EC50

Structure (SMILES) | EC50
COc1ccc2nc(/C=C/c3ccccc3)cc(NCCN(C)C)c2c1 [Compound 8] | 0.0412 ± 0.0053 µM
COc1ccc2nc(/C=C/c3ccc([N+](=O)[O-])cc3)cc(NCCN(C)C)c2c1 [Compound 9] | 0.0286 ± 0.0009 µM
COc1ccc2nc(/C=C/c3ccccc3[N+](=O)[O-])cc(NCCN(C)C)c2c1 [Compound 10] | 0.0563 ± 0.0081 µM
COc1ccc2nc(/C=C/c3cccc([N+](=O)[O-])c3)cc(NCCN(C)C)c2c1 [Compound 11] | 0.0495 ± 0.004 µM
CN(C)CCNc1cc(/C=C/c2ccccc2)nc2ccc(F)cc12 [Compound 16] | 0.021 ± 0.0021 µM
COc1cc(/C=C/c2cc(NCCN(C)C)c3cc(F)ccc3n2)cc(OC)c1OC [Compound 21] | 0.0386 ± 0.0018 µM
CN(C)CCNc1cc(/C=C/c2ccccc2)nc2ccccc12 [Compound 32] | 0.0807 ± 0.0224 µM
COc1ccc2nc(/C=C/c3ccco3)cc(NCCN(C)C)c2c1 [Compound 39] | 0.0887 ± 0.0023 µM
COc1ccc2nc(/C=C/c3ccncc3)cc(NCCN(C)C)c2c1 [Compound 41] | 0.0336 µM and 0.0388 µM
COc1ccc2nc(/C=C/c3ccccn3)cc(NCCN(C)C)c2c1 [Compound 42] | 1.03 ± 0.233 µM
CN(C)CCNc1cc(/C=C/c2ccco2)nc2ccc(F)cc12 [Compound 44] | 0.0826 ± 0.0094 µM
CN(C)CCNc1cc(/C=C/c2ccco2)nc2ccc(Cl)cc12 [Compound 47] | 0.037 ± 0.0043 µM
CN(C)CCNc1cc(/C=C/c2cncnc2)nc2ccc(Cl)cc12 [Compound 53] | 0.155 ± 0.0116 µM
CN(C)CCNc1cc(/C=C/c2cc3ccccc3[nH]2)nc2ccc(Cl)cc12 [Compound 54] | 0.0959 ± 0.0067 µM
COc1ccc2nc(/C=C/c3cc(NCCN(C)C)c4cc(Cl)ccc4n3)ccc2c1 [Compound 55] | 0.281 ± 0.0403 µM
COc1ccc2nc(CCc3ccncc3)cc(NCCN(C)C)c2c1 [Compound 58] | 0.709 ± 0.0582 µM
CN(C)CCNc1cc(CCc2ccncc2)nc2ccc(Cl)cc12 [Compound 59] | 0.259 ± 0.0155 µM
N#Cc1ccc(/C=C/c2cc(N3CCOCC3)c3cc(Cl)ccc3n2)cc1 [Compound 64] | > 1 µM
FC(F)(F)c1ccccc1/C=C/c1cc(NCCCCN2CCOCC2)c2cc(Cl)ccc2n1 [Compound 99] | 0.104 ± 0.0072 µM
Fc1cnccc1/C=C/c1cc(NCCCCN2CCOCC2)c2cc(Cl)ccc2n1 [Compound 109] | 0.0796 ± 0.0118 µM
Fc1cccnc1/C=C/c1cc(NCCCCN2CCOCC2)c2cc(Cl)ccc2n1 [Compound 112] | 0.197 ± 0.0165 µM

— patent US12479803B2, “Antimalarial compounds” (UNIVERSITY OF CENTRAL FLORIDA RESEARCH FOUNDATION, INC., priority 2019, dated 2025)
